One data set relates to Mus musculus. The data set can be described thus: Antiallodynic activity in ip dosed MIA induced mechanical allodynia mouse model. The data set is classed as functional.
Data set [1] deals with Sigma non-opioid intracellular receptor 1 (Homo sapiens, UniProt Q99720). Briefly: Displacement of [3H](+)-pentazocine from human sigma 1 receptor expressed in HEK293 cells membrane incubated for 120 mins by MicroBeta scintillation counter assay. The data set is classed as cell membranes.
Data set [2] can be described thus: Metabolic stability in mini-pig liver microsomes assessed as compound remaining after 1 hr. The data set is classed as ADME, Sus scrofa domesticus, Microsome. Particulars: read-out: Stability. A general note: Liver microsomes are vesicles of endoplasmic reticulum, rich in cytochrome P450 enzymes.
For data set [3], the target named is T1, Mu-type opioid receptor (Homo sapiens, UniProt P35372). The data set can be described thus: Displacement of [3H]-DAMGO from human mu opioid receptor expressed in CHO-K1 cells membrane incubated for 60 mins by MicroBeta scintillation counter assay. The data set is classed as cell membranes.
The next data set deals with Rodentia sp. Briefly: Analgesic activity in ip dosed formalin-induced pain rodent model. The data set is classed as functional.
A short description of data set [4]: Toxicity in ip dosed rodent. The data set is classed as organism-based. The note with it: rodentia, in vivo.
A short description of data set [5]: Therapeutic index, ratio of LD50 for toxicity in ip dosed rodent to ED50 for analgesic activity in ip dosed rodent. The data set is classed as organism-based. Particulars: rodentia, in vivo, read-out: Ratio LD50/ED50.
For data set [6], the target named is T1, Mu-type opioid receptor. The data set can be described thus: Binding affinity to mu opioid receptor (unknown origin) assessed as inhibition constant in presence of Levorphanol.
A further data set has as its system Rattus norvegicus. Briefly: Analgesic activity in ig dosed formalin-induced pain Sprague-Dawley rat model. The data set is classed as functional. The note with it: po.
Data set [7] can be described thus: Therapeutic index, ratio of LD50 for toxicity in ig dosed Sprague-Dawley rat to ED50 for analgesic activity in ig dosed Sprague-Dawley rat. The note with it: in vivo, po, read-out: Ratio LD50/ED50. The data set is classed as organism-based.
The nature of data set [8]: Toxicity in ig dosed Sprague-Dawley rat. The note with it: in vivo, po. The data set is classed as organism-based.

Experimental findings from ChEMBL document CHEMBL5230145, “Bifunctional μ opioid and σ1 receptor ligands as novel analgesics with reduced side effects” (Eur J Med Chem, 2021) are described below.

pKi: −log10 of the molar value.

One may read the ED50 as the dose at which the effect has come halfway, by size or by number of responders. Low readings indicate an effect at a small dose, high ones a need for a large dose. For orientation: pKi means the negative decadic logarithm of the Ki, by convention in mol/L. Usually LD50 stands for the dose at which mortality reaches 50%.

Sigma non-opioid intracellular receptor 1, sequence (Q99720 whole entry): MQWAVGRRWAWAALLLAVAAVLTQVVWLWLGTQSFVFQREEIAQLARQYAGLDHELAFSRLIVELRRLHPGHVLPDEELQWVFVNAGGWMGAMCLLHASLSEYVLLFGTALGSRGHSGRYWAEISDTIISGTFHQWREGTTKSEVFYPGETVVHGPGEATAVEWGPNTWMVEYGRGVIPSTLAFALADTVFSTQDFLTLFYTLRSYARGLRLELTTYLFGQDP
T1 sequence (P35372 whole entry): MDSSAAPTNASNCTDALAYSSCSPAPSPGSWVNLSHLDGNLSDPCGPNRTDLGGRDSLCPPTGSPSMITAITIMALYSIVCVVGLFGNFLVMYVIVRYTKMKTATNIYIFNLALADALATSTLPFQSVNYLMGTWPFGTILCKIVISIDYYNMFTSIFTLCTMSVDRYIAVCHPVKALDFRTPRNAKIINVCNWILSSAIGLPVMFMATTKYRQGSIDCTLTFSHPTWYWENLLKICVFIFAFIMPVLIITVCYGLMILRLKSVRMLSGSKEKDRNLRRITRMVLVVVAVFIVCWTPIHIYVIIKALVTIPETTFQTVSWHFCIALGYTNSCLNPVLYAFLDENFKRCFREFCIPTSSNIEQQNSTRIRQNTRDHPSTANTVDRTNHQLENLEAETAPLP

In the data set on Mus musculus, `CCC(=O)N(CC1(N2CCN(CC(C)C)CC2)CCOCC1)c1cccc(C(F)(F)F)n1` gave an ED50 of 31.9 mg/kg.

For the molecule `CCC(=O)N(CCN1CCC(N(C)Cc2ccccc2)C1)c1ccccc1` (stereo unspecified), the pKi in data set [1] was 7.00.

For the molecule `[2H]C([2H])([2H])C([2H])([2H])N1CC2(CCN(C([2H])([2H])C([2H])([2H])c3cc(F)ccc3F)CC2)O[C@H](C)C1=O`, the remaining at 1 h in data set [2] came to 64%.

On to `CN1CC2(CCN(CCc3ccccc3)CC2)c2ccccc2C1=O`, for which the pKi (in data set [1]; at Mu-type opioid receptor [3]) was 7.00 in each case.

On to `CC(C)S(=O)(=O)Nc1cccc(N2CCN(Cc3cn(-c4ccccc4F)nn3)CC2)c1`, for which the pKi (in data set [1]; at Mu-type opioid receptor [3]) was over 7.00 in each case.

Regarding `Cc1cc(OCCN2CCOCC2)nn1-c1ccc2ccccc2c1`, the 50% effect level with Rodentia sp. (ED50) was put at a dose of 33.2 mg/kg. The LD50 in data set [4] was found to be 397 mg/kg. The selectivity ratio in data set [5] was 12.

For the molecule `CCOCCN1CCCCC(CC)(c2cccc(O)c2)C1` (stereo unspecified), the pKi (in data set [1]; on Mu-type opioid receptor [3]) was over 7.00 in each case.

Regarding `COc1ccc2c(c1)CCN(C)C21CCN(CCc2ccccc2)CC1`, the negative logarithm of the Ki (pKi) (in [1]; at Mu-type opioid receptor [3]) was over 7.00 each time.

`CN(CCOC(c1cccs1)c1ccnn1C)CCc1ccccc1` (stereo unspecified): the pKi (in [1]; on Mu-type opioid receptor [3]) was over 7.00 in each case.

Consider `CC(C)S(=O)(=O)Nc1cccc(C2CCN(Cc3cn(-c4ccccc4)nn3)CC2)c1`, for which the pKi (in data set [1]; on Mu-type opioid receptor [3]) was over 7.00 in each case.

Take `C[C@@H]1[C@@H]2Cc3ccc(O)cc3[C@]1(C)CCN2CCc1ccccc1`: at Mu-type opioid receptor [6], the pKi is 7.26.

For `Oc1cccc(C2CCN(Cc3cn(-c4ccccc4)nn3)CC2)c1`, the pKi (in data set [1]; at Mu-type opioid receptor [3]) was over 7.00 throughout.

For the molecule `CN1CCc2ccccc2C12CCN(CCc1ccccc1)CC2`, the pKi (in [1]; on Mu-type opioid receptor [3]) was over 7.00 throughout.

In the case of `Clc1ccc(-c2noc(CCCCN3CCCCC3)n2)c(Cl)c1`, in the data set on Rattus norvegicus, the ED50 was 52.5 mg/kg. In data set [7], the selectivity ratio was found to be 18.2. Besides, in data set [8], the LD50 turned out to be 957 mg/kg.

Take `CN(CCOC(c1cccs1)c1ccnn1C)Cc1ccccc1` (stereo unspecified): the pKi (in [1]; at Mu-type opioid receptor [3]) was over 7.00 throughout.

On to `CCN1CC2(CCN(CCc3ccccc3)CC2)c2ccccc2C1=O`, for which the pKi (in data set [1]; on Mu-type opioid receptor [3]) was 7.00 each time.

Take `O=C(c1ccccn1)C1(N2CCN(Cc3ccccc3)CC2)CCOC2(CCCC2)C1` (stereo unspecified): the pKi (in data set [1]; on Mu-type opioid receptor [3]) was over 7.00 each time.

Turning to `CC(=O)Oc1cccc(C2CCN(Cc3cn(-c4ccccc4)nn3)CC2)c1`, the pKi (in data set [1]; at Mu-type opioid receptor [3]) was over 7.00 each time.

For the molecule `C[C@H]1[C@H]2Cc3ccc(O)cc3[C@@]1(C)CCN2CCc1ccccc1`, the pKi on Mu-type opioid receptor [6] is 9.70.

Take `O=C(c1cccc(C(F)(F)F)n1)C1(N2CCN(Cc3ccccc3)CC2)CCOC2(CCCC2)C1` (stereo unspecified): the pKi (in data set [1]; on Mu-type opioid receptor [3]) was over 7.00 in each case.

For `O=C(c1ccccc1)C1(N2CCN(Cc3ccccc3)CC2)CCOC2(CCCC2)C1` (stereo unspecified), the pKi (in data set [1]; on Mu-type opioid receptor [3]) was over 7.00 each time.

In the case of `CC(C)S(=O)(=O)Nc1cccc(N2CCN(Cc3cn(-c4ccccc4)nn3)CC2)c1`, the pKi (in [1]; on Mu-type opioid receptor [3]) was over 7.00 each time.
